A short description of the data set: refractive index (Na D-line) (dimensionless); wn = mass fraction of the nth substance listed. The following applies: 288.15 K, 100 kPa, Liquid, Standard Abbe refractometry.

The structures appear in SMILES notation. ± gives the expanded uncertainty stated by the source.

As to `[Br-].[Li+]` [lithium bromide] + O, the refractive index (w1 = 0.5929) came to 1.4744 ± 0.0004.

In the case of `[Cl-].[Li+]` [lithium chloride] + O, the refractive index (w1 = 0.4395) worked out at 1.4343 ± 0.0004.

As for `[Br-].[Br-].[Ca+2]` [calcium bromide] + O, the refractive index (w1 = 0.5794) is recorded as 1.4892 ± 0.0004.

Consider `[Ca+2].[Cl-].[Cl-]` [calcium chloride] + O, for which, where the note is “w1 = 0.4075”, the refractive index was 1.4428 ± 0.0004.
